The source of these data is US11420922B2, “Hydroxylated tropolone inhibitors of nucleotidyl transferases in herpesvirus and Hepatitis B and uses therefor” (Saint Louis University, priority 2015, dated 2022).

What is called CC50 is the concentration giving 50% cytotoxicity. In general, CLint scaled refers to the rate of metabolic loss divided by the concentration. The term EC50 denotes the concentration that produces a half-maximal response.

“Also recorded” adds a separate entry of the source. Where two headings read alike, the source gives them in different places. Bounds are passed on as bounds.

Data set [1] is described as follows: Quantitative Vero cell toxicity (MTT). Type of data set: cell-based. The following applies: African green monkey, Vero cells. The procedure: (§1) Qualitative assessments of cytotoxicity were done visually by inspecting the cells in the primary screening assays. For the quantitative assays, cells were plated in 96-well plates at 1.0×10^4 per well. The next day the compounds were added at 0.78 to 100 μM in a final concentration of 1% (v/v) DMSO, and the cells were incubated for 24 hours under conditions identical to those employed for the viral replication inhibition assays. Mitochondrial toxicity was measured by incubating the cells with 0.25 mg/mL thiazolyl blue tetrazolium bromide (MTT, Sigma Aldrich Chemical Co.), the cultures were incubated for 60 min, metabolites were solubilized in acidic isopropanol, and absorbance was read at 570 nm. CC50 values were calculated by non-linear curve fitting using GraphPad Prism.
Quantitative toxicity measurements were conducted for all compounds that suppressed HSV replication by >2 log10 at 5 μM plus a number of compounds with lesser inhibitory activity for comparison. Toxicity was assessed by […]. Cells were plated in 96-well plates at 1.0×10^4 per well. The next day compound was added in concentrations ranging from 0.78 to 100 μM in a final concentration of 1% (v/v) DMSO. The cells were incubated for 24 h under conditions identical to those employed for the viral replication inhibition assays, and then mitochondrial activity was measured with the MTT assay (Sigma Aldrich) according to the manufacturer's instructions. Percent viability was determined for each compound concentration from the […], and then 50% cytotoxic concentrations (CC50) values were calculated by non-linear curve fitting using GraphPad Prism. Consistent with the subjective assessments of toxicity, all compounds selected for quantitative toxicity assessment had CC50 values≥50 μM under these conditions (Table 1).

Data set [2] deals with HSV-1. The following applies: 5 μM or less; cited from earlier work.
Data set [3] deals with HSV-2. As to conditions: 5 μM or less; cited from earlier work.
For data set [4], the system named is HSV-2. Put plainly: Anti-HSV-2 replication assay in Vero cells, titers by plaque assay. Type of data set: cell-based, herpes simplex virus 2. The following applies: for log reduction at 5 µM / EC50 / log reduction at 50 µM: Human alphaherpesvirus 2, Vero, 24 h; for log reduction at 5 µM: read-out: HSV-2 Log suppression 5 μM; for inhibition of wild-type HSV-2, in words: laboratory strain, 24 hr, FIG. 4; for EC50: read-out: HSV-2 EC50; for log reduction at 50 µM: read-out: HSV-2 Log suppression 50 μM.

In data set [5] the test system is HSV-1. Put plainly: Anti-HSV-1 replication assay in Vero cells, titers by plaque assay. The following applies: Human alphaherpesvirus 1, Vero; for log reduction at 5 µM / EC50 / log reduction at 50 µM: 24 h; for log reduction at 5 µM: read-out: HSV-1 Log suppression 5 μM; for EC50: read-out: HSV-1 EC50; for log reduction at 50 µM: read-out: HSV-1 Log suppression 50 μM. The format is cell-based, herpes simplex virus 1. The procedure: Vero cells were maintained in Dulbecco's modified Eagle's medium (DMEM) containing 3% newborn calf serum, 3% bovine growth serum, 2 mM L-glutamine and 100 IU/mL penicillin and 0.1 mg/mL streptomycin (P/S). HSV-1 #6 and HSV-2 #1 are de-identified clinical isolates from the Saint Louis University Hospital. Stocks were prepared after a single passage in cell culture and were titered by standard plaque assay (Knipe and Spang, 1982). Wild-type HSV-2 used in FIG. 3 was laboratory strain 333. […] Virus stocks were grown and titered on Vero cells (Morrison and Knipe, 1996).
(§2) Compounds to be screened were diluted in PBS supplemented to contain 2% newborn calf serum and 1% glutamine, and added in 100 μL volume to confluent cell monolayers in 24-well cluster plates. Immediately thereafter HSV-1 and HSV-2, diluted in the supplemented PBS medium, were added to the wells in 50 μl volume such that the final concentration of compound was 50 μM and 5 μM and the multiplicity of infection was 0.1. The plates were incubated at 37° C. for 1 hour and then virus-containing inoculum was removed and the wells were washed once in PBS. Compounds, diluted to 50 μM and 5 μM in DMEM supplemented to contain 2% newborn calf serum and 1% each penicillin/streptomycin, were added at 0.5 mL/well. Plates were incubated at 37° C. an additional 23 hr, and then the plates were visually inspected through a phase contrast microscope for cytopathic effect, and for toxic effect. […] The entire contents of each well were collected by scraping. Samples were frozen at −80° C., and then subsequently thawed, sonicated, and infectious virus titer was determined by standard plaque assay on Vero cell monolayers. Because the compounds were dissolved at 10 mM in 100% DMSO, equivalent dilutions of DMSO were added to additional wells as a control for effects of the diluent. Each experiment was repeated once. EC50 values were determined as above except that serial dilutions of the compound to be tested were prepared starting at 50 μM. The inhibitory values were calculated by non-linear curve-fitting in GraphPad Prism.

Data set [6] is described as follows: Cytotoxicity reported with the HBV assay (Table 4). The format is cell-based. The following applies: human, hepatoma cells; read-out: CC50 (HBV assay table). The procedure:
as §1

For data set [7], the system named is HSV. Put plainly: Anti-HSV SAR summary, HSV type not separated. The following applies: grouped by activity at 50, 5 and 0.5 μM. Type of data set: cell-based, herpes simplex virus. The procedure:
as §2
A series of over 20 synthetic αHTs were synthesized and tested to both confirm the initial SAR, and to provide leads for further optimization pursuits (FIG. 5). […] Specifically, biphenyl-containing molecules #118 and 115 inhibit HSV replication by up to 4 log10 at 200 nM. The increased potency over close analogs #111 and 113 confirmed the importance of added lipophilicity.

A short description of data set [8]: Mouse liver microsome assay. Type of data set: in vitro ADME. The following applies: 1 μM in mouse liver microsomes. The procedure:
Microsomal incubations are run at a final P450 concentration of 0.25 μM. The microsomal mixture is composed of 0.1M potassium phosphate containing 3.3 mM MgCl and 1 μM compound (final concentration). The mixture is prewarmed for 5 min at 37° C. To initiate the reaction a 12 mM stock of NAPDH (1.2 mM, final concentration) is added to the warmed microsomal mixture and aliquots are removed at 0, 5, 10, 20 and 30 min. Samples are quenched with ice cold acetonitrile containing internal standard and either 1.8 mM EDTA or EGTA (final concentration). Samples are vortexed and spun down at 3200 rpm for 5 min. The supernant is transferred to 96-deep well plates and run on LC/MS/MS.

Data set [9] concerns TK-deficient mutant of HSV-2 strain 333, ΔTK-. Put plainly: Replication of acyclovir-resistant TK-deficient HSV-2 mutant in Vero cells. Type of data set: cell-based, herpes simplex virus 2. The following applies: 5 μM, 24 hr, FIG. 4. The procedure: FIGS. 4A & 4B. Sensitivity of thymidine kinase-deficient HSV-2 to αHT compounds. […] Duplicate cultures were collected 24 hours post-infection and infectious virus titers were determined by plaque assay. Titers in compound-treated samples were subtracted from DMSO-treated samples. Values are the averages±one standard error of the mean. α-Hydroxytropolones inhibit an ACV-resistant mutant of HSV-2. […] Log10 suppression was determined relative to the diluent control. Data are the averages of data from duplicate samples±ranges from one of two independent experiments at each concentration.
Vero cells were maintained in Dulbecco's modified Eagle's medium (DMEM) containing 3% newborn calf serum, 3% bovine growth serum, 2 mM L-glutamine and 100 IU/mL penicillin and 0.1 mg/mL streptomycin (P/S). HSV-1 #6 and HSV-2 #1 are de-identified clinical isolates from the Saint Louis University Hospital. Stocks were prepared after a single passage in cell culture and were titered by standard plaque assay (Knipe and Spang, 1982). Wild-type HSV-2 used in FIG. 3 was laboratory strain 333. The TK-deficient mutant of HSV-2 strain 333, ΔTK-, contains a 180-bp KpnI-KpnI deletion in the UL23 open reading frame that abrogates TK activity (McDermott, et al, 1984). ΔTK- was the generous gift of Jim Smiley. Virus stocks were grown and titered on Vero cells (Morrison and Knipe, 1996).
HSV TK-deficient mutants are therefore insensitive to ACV. […] Vero cells were infected with a laboratory strain of HSV-2 and an engineered TK-deficient mutant of the same strain.

In data set [10] the test system is HBV. Put plainly: HBV replication assay in HepDES19 cells. Type of data set: cell-based. As to conditions: Hepatitis B virus; HepDES19 cells; read-out: EC50 (HBV assay). The procedure:
HBV replication assay. Inhibition of HBV replication was measured in HepDES19 cells as previously described (Cai, et al., 2014). Cells were seeded into 6-well plates and incubated in DMEM/F12, 10% fetal bovine serum (FBS), 1% penicillin/streptomycin (P/S) with 1 μg/ml tetracycline. Tetracycline was withdrawn after 24 hours. The test compound was applied to duplicate wells 48 hours later in medium containing a final DMSO concentration of 1%, and medium containing the compound was refreshed daily for the following two days. Cells were harvested and non-encapsidated nucleic acids were digested with micrococcal nuclease (New England Biolabs). HBV DNA was purified from capsids using QIAamp Cador Pathogen Mini Kit (Qiagen) with proteinase K incubation overnight at 37° C. TaqMan PCR was performed for 40 cycles at an annealing temperature of 60° C. Primers and probe (IDT Inc.) for the plus-polarity strand were: 5′[…]3′ (SEQ ID NO: 1); 5′[…]3′ (SEQ ID NO: 2); 5′/56-FAM/[…]/ZEN/[…]/3IABkFQ (SEQ ID NO: 3). Primers and probe for the minus-polarity strand were: 5′[…]3′ (SEQ ID NO: 4); 5′[…]3′ (SEQ ID NO: 5); 5′/56-FAM/[…]/ZEN/[…]/3IABkFQ (SEQ ID NO: 6).

The mark [11] stands for this setting: 5 μM, moi 0.1, 24 h, vs DMSO, +/− are qualitative, key not given.
Setting [12] is: 50 μM, moi 0.1, 24 h, vs DMSO, +/−/T are qualitative, key not given.

Take `Cc1cc(O)c(=O)c(O)cc1C(=O)c1ccccc1` [Compound 111]: the CC50 at 24 h was > 50 µM in data set [1] and 31 µM in data set [6]. For the same compound, the “suppression of HSV-1 replication in cell culture, in words” value in data set [2] is recorded as “strongly suppress”. The “suppression of HSV-2 replication in cell culture, in words” value in data set [3] is “strongly suppress”. Moreover, the log reduction at 5 µM in [4] was 3.21; in data set [5], 4.28. Further, the “anti-HSV SAR group, in words” value in [7] is on record as “fully inhibitory at 5 μM”.

In the case of `Cc1cc(O)c(=O)c(O)cc1-c1ccc(-c2ccccc2)cc1` [Compound 115], in [8], the Non-P450 turn-over result is listed as “No”. The half-life at 1 μM in data set [8] (read-out: t ½) turned out to be 18 min. The ER in data set [8] (extraction ratio) was found to be 0.76. This compound gave a CLint scaled at 1 μM in data set [8] (mouse, liver microsomes) of 285 mL/min/kg. In addition, the predicted hepatic clearance at 1 μM in data set [8] (mouse, liver microsomes, read-out: CL ′hep) was 68 mL/min/kg. Further, the CC50 at 24 h in [1] is > 100 µM. Also, the “inhibition of wild-type HSV-2, in words” value in data set [4] (5 μM) is recorded as “efficiently inhibited”. In addition, in [4], the EC50 turned out to be 0.13 µM, the log reduction at 5 µM turned out to be 4.52 and the log reduction at 50 µM is 5.11. In addition, in data set [5], the EC50 came to 0.13 µM, the log reduction at 5 µM came to 4.26 and the log reduction at 50 µM was 4.14. For the same compound, the “anti-HSV SAR group, in words” value in data set [7] is given as “highly inhibitory at much lower concentrations; also recorded: fully inhibitory at 0.5 μM”. Besides, the “inhibition of the TK-mutant strain, in words” value in data set [9] is given as “efficiently inhibited”.

For `COC(=O)c1c(C)cc(O)c(=O)c(O)c1O` [Compound 196], the CC50 at 24 h in data set [1] is > 100 µM; in data set [6], 13 µM. Moreover, the “inhibition of wild-type HSV-2, in words” value in data set [4] (5 μM) is on record as “efficiently inhibited”. For the same compound, the EC50 in data set [4] was 2.57 µM; in data set [5], 0.1 µM; in [10], 6.5 µM. Moreover, the log reduction at 5 µM was determined as 4.05 in data set [4] and 4.17 in [5]. Besides, the values for the log reduction at 50 µM in [4] and in data set [5] were 4.56 and 3.99, respectively. The log reduction at 1.5 µM in data set [5] (read-out: HSV-1 Log suppression 1.5 μM) stood at 3.82. In data set [9], the “inhibition of the TK-mutant strain, in words” value was “efficiently inhibited”.

In the case of `Nc1nc2c(ncn2COCCO)c(=O)[nH]1` [ACV, Acyclovir, reference compound], in [1], the CC50 at 24 h is > 100 µM. The log reduction at 5 µM in [4] (setting [11]) is 3.6; in data set [5] (setting [11]), 4.22. Moreover, the figures for the log reduction at 50 µM in [4] (setting [12]) and in data set [5] (setting [12]) were 4.73 and 5.39, respectively. Also, the “inhibition of the TK-mutant strain, in words” value in data set [9] was “little effect”.
